Measurements published in patent US7897369B2, “Isoprenoid wax ester synthases, isoprenoid acyl CoA-synthetases, and uses thereof” (Regents of the University of Minnesota, priority 2007, dated 2011).

Assays:
Type in all cases: biochemical, Marinobacter hydrocarbonoclasticus DSM 8798
WS2 [1] = biological target: T1, WS2 (Marinobacter nauticus, UniProt A3RE51); experiment: Coupled enzyme assay, WS substrate profile (TLC); set-up: key to WE formation (spot intensity of wax ester products on TLC), WS2, C16 / WE formation (spot intensity of wax ester products on TLC), WS2, Phytol / WE formation (spot intensity of wax ester products on TLC), WS2, Farnesol / WE formation (spot intensity of wax ester products on TLC), WS2, C10 / WE formation (spot intensity of wax ester products on TLC), WS2, C12 / WE formation (spot intensity of wax ester products on TLC), WS2, C14: no activity (−); ranging from no activity (−) to most active (+++); ranging from no activity (−) to most active (+++); most active (+++); details: 12 h at 37° C., each substrate 250 μM; for WE formation (spot intensity of wax ester products on TLC), WS2, Farnesol: alcohol farnesol; for WE formation (spot intensity of wax ester products on TLC), WS2, Phytol: alcohol phytol; for WE formation (spot intensity of wax ester products on TLC), WS2, C10: fatty alcohol C10; for WE formation (spot intensity of wax ester products on TLC), WS2, C12: fatty alcohol C12; for WE formation (spot intensity of wax ester products on TLC), WS2, C14: fatty alcohol C14; for WE formation (spot intensity of wax ester products on TLC), WS2, C16: fatty alcohol C16
Experimental: (§1) Stock solutions of various substrates were prepared in 50 mM Tris-HCl buffer (pH 8) containing 1% gum arabic, 12.5 μg bovine serum albumin ml^−1, 0.1% taurocholate, and either 100 mM fatty acid, isoprenoid acid, fatty alcohol, or isoprenoid alcohol. Stock solutions were sonicated to disperse the substrates. Substrate profiles of the three WS were tested using coupled enzyme in vitro reactions in which the CoA synthetases Acs1 and Acs2 are added to synthesize the CoA-activated fatty acid phytanic acid substrates from corresponding acid precursors for the WS reactions. Assays were carried out in 500-μl reactions containing in 50 mM Tris-HCl buffer (pH 8.0), 12.5 μl of each acid, and alcohol substrate stock solution (final concentrations of each substrate of 250 μM), 10 mM MgCl2, 10 mM CoASH, 10 mM ATP, 5 mM TCEP, 0.1 U of inorganic pyrophosphatase, 0.25 μg of Acs1 and Acs2 CoA synthetase, and 0.5 μg of WS to be tested. Assays were incubated at 37° C. overnight before thin-layer chromatography (TLC) analysis of the reaction products.
(§2) In vitro WS assay samples were extracted with 500 μl of chloroformmethanol (1:1 [vol/vol]), and extracts were analyzed by TLC with Whatman normal phase silica gel 60 plates and developed using hexane-diethyl ether-acetic acid (90:10:1 [vol/vol/vol]). TLC plates were stained with either iodine vapor or anisaldehyde solution as described earlier (Jork et al., 1990. Thin-layer chromatography reagents and detection methods, vol. 1a. Physical and chemical detection methods: fundamentals, reagents. VHC, Weinheim, Germany). Palmitoyl palmitate and triolein were used as WE and TAG reference compounds, respectively.

WS1 = experiment: Coupled enzyme assay, WS substrate profile (TLC); set-up: key to WE formation (spot intensity of wax ester products on TLC), WS1, C10 / WE formation (spot intensity of wax ester products on TLC), WS1, C12 / WE formation (spot intensity of wax ester products on TLC), WS1, C14 / WE formation (spot intensity of wax ester products on TLC), WS1, C16 / WE formation (spot intensity of wax ester products on TLC), WS1, Phytol / WE formation (spot intensity of wax ester products on TLC), WS1, Farnesol: no activity (−); ranging from no activity (−) to most active (+++); ranging from no activity (−) to most active (+++); most active (+++); details: 12 h at 37° C., each substrate 250 μM; for WE formation (spot intensity of wax ester products on TLC), WS1, Farnesol: alcohol farnesol; for WE formation (spot intensity of wax ester products on TLC), WS1, Phytol: alcohol phytol; for WE formation (spot intensity of wax ester products on TLC), WS1, C10: fatty alcohol C10; for WE formation (spot intensity of wax ester products on TLC), WS1, C12: fatty alcohol C12; for WE formation (spot intensity of wax ester products on TLC), WS1, C14: fatty alcohol C14; for WE formation (spot intensity of wax ester products on TLC), WS1, C16: fatty alcohol C16
Experimental: as §1, §2

WS2 [2] = biological target: T1, WS2; experiment: Kinetic WS assay, spectrophotometric (CoA release, DTNB); details: both substrates 1 mM; for Fatty/isoprenoid alcohol specificity of WS2: palmitoyl-CoA as acyl donor; for Acyl-CoA specificity of WS2: hexadecanol as acyl acceptor
Experimental: Assay reactions were preincubated at 37° C. for 5 min before the reactions were started by the addition of enzyme. Heat-denatured enzyme (99° C. for 15 min) was used as a negative control.
Acyl-CoA and fatty/isoprenoid alcohol specificity of WS2 was determined in the same manner as described for the kinetic WS assay with assumed saturating conditions containing both the fatty/isoprenoid alcohol and acyl-CoA substrates at a concentration of 1 mM. Acyl-CoA specificity was measured with hexadecanol as acyl acceptor, whereas palmitoyl-CoA was used as acyl donor to determine alcohol specificity.
A spectrophotometric assay was developed to determine the kinetic properties of WS1 and WS2. […] The specific activities of WS1, WS2, and Acinetobacter WS/DGAT were measured with palmitoyl-CoA and hexadecanol, palmitoyl-CoA and phytol, and phytanoyl-CoA and phytol. Phytanoyl-CoA for these assays was enzymatically synthesized from phytanic acid and CoA using the above-characterized isoprenoid/acyl-CoA synthetase Acs2.

T1 sequence (A3RE51 entry or part of it): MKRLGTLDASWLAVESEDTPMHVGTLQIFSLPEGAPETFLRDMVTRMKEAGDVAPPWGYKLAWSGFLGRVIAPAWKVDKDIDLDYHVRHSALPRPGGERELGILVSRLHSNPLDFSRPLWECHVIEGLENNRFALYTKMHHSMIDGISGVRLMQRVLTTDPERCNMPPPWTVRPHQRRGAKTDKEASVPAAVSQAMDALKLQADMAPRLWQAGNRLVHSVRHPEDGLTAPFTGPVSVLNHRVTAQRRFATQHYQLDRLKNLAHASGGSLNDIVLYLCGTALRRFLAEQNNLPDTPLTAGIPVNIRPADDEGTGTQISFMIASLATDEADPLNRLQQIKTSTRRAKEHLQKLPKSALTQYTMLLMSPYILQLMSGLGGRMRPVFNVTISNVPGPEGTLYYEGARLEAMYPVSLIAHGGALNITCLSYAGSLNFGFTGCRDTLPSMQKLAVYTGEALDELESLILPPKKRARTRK

Row | SMILES | WE formation (spot intensity of wax ester products on TLC), WS2, Farnesol (WS2 [1]) | WE formation (spot intensity of wax ester products on TLC), WS2, Phytol (WS2 [1]) | WE formation (spot intensity of wax ester products on TLC), WS2, C10 (WS2 [1]) | WE formation (spot intensity of wax ester products on TLC), WS2, C12 (WS2 [1]) | WE formation (spot intensity of wax ester products on TLC), WS2, C14 (WS2 [1]) | WE formation (spot intensity of wax ester products on TLC), WS2, C16 (WS2 [1]) | WE formation (spot intensity of wax ester products on TLC), WS1, Farnesol (WS1) | WE formation (spot intensity of wax ester products on TLC), WS1, Phytol (WS1) | WE formation (spot intensity of wax ester products on TLC), WS1, C10 (WS1) | WE formation (spot intensity of wax ester products on TLC), WS1, C12 (WS1) | WE formation (spot intensity of wax ester products on TLC), WS1, C14 (WS1) | WE formation (spot intensity of wax ester products on TLC), WS1, C16 (WS1) | Fatty/isoprenoid alcohol specificity of WS2 (WS2 [2]) | Acyl-CoA specificity of WS2 (WS2 [2])
1 | CCCCCCCCCC(=O)O [C10] | + | + | + | + | − | + | +++ | − | + | + | − | + |  | 
2 | CCCCCCCCCCCC(=O)O [C12] | ++ | + | + | + | + | + | +++ | − | − | + | + | + |  | 
3 | CCCCCCCCCCCCCCCCCC(=O)O [C18] | ++ | + | + | + | + | + | ++ | ++ | ++ | + | ++ | + |  | 
4 | CCCCCCCCCCO [Decanol] |  |  |  |  |  |  |  |  |  |  |  |  | more readily taken up for WE synthesis than the equivalent-chain-length acyl-CoA carbon chain | 
5 | CCCCCCCCCCCCCC(=O)SCCNC(=O)CCNC(=O)[C@H](O)C(C)(C)COP(=O)(O)OP(=O)(O)OC[C@H]1O[C@@H](n2cnc3c(N)ncnc32)[C@H](O)[C@@H]1OP(=O)(O)O [myristoyl-CoA, myristoyl-CoA (C14:0)] |  |  |  |  |  |  |  |  |  |  |  |  |  | poorly converted
6 | CCCCCCCCCCCCCC(=O)O [C14] | ++ | + | ++ | + | ++ | + | ++ | + | − | − | ++ | + |  | 
7 | CCCCCCCCCCCC(=O)SCCNC(=O)CCNC(=O)[C@H](O)C(C)(C)COP(=O)(O)OP(=O)(O)OC[C@H]1O[C@@H](n2cnc3c(N)ncnc32)[C@H](O)[C@@H]1OP(=O)(O)O [lauroyl-CoA, lauroyl-CoA (C12)] |  |  |  |  |  |  |  |  |  |  |  |  |  | not accepted at all
8 | CCCCCC/C=C\CCCCCCCC(=O)O [C16Δcis9] | ++ | ++ | ++ | ++ | +++ | +++ | ++ | +++ | + | ++ | ++ | ++ |  | 
9 | CCCCCCCCCCCCO [dodecanol] |  |  |  |  |  |  |  |  |  |  |  |  | more readily taken up for WE synthesis than the equivalent-chain-length acyl-CoA carbon chain | 
10 | CC/C=C\C/C=C\C/C=C\CCCCCCCC(=O)SCCNC(=O)CCNC(=O)[C@H](O)C(C)(C)COP(=O)(O)OP(=O)(O)OC[C@H]1O[C@@H](n2cnc3c(N)ncnc32)[C@H](O)[C@@H]1OP(=O)(O)O [linolenoyl-CoA, linolenoyl-CoA (C18:3)] |  |  |  |  |  |  |  |  |  |  |  |  |  | readily accepted
11 | CCCCCCCCCCCCCCCCCCCC(=O)O [C20] | + | + | − | − | + | + | ++ | ++ | + | + | + | + |  | 
12 | CC/C=C\C/C=C\C/C=C\CCCCCCCC(=O)O [C18Δcis9, 12, 15] | − | + | + | + | + | + | + | − | − | + | + | − |  | 
